# Reference: patent US7273848B2, “Apolipoprotein A-I agonists and their use to treat dyslipidemic disorders” (priority 1997, dated 2007)
# Non-standard residues stand in square brackets, D forms with d. Residues, ends and D or L forms follow the SMILES beside them. No end group written: not given here. 1Nal = N[C@@H](Cc1cccc2ccccc12)C(=O)O; Aib = CC(C)(N)C(=O)O
# Legend:
# [1] = target: T1, LCAT (purified from human plasma) (Homo sapiens, UniProt P04180); assay: LCAT activation assay; assay type: biochemical; conditions: LCAT activation as compared with native human ApoA-I (= 100%), equivalent masses
# T1 construct: from tissue; host or cells: human plasma
# T1 sequence (P04180 25-440): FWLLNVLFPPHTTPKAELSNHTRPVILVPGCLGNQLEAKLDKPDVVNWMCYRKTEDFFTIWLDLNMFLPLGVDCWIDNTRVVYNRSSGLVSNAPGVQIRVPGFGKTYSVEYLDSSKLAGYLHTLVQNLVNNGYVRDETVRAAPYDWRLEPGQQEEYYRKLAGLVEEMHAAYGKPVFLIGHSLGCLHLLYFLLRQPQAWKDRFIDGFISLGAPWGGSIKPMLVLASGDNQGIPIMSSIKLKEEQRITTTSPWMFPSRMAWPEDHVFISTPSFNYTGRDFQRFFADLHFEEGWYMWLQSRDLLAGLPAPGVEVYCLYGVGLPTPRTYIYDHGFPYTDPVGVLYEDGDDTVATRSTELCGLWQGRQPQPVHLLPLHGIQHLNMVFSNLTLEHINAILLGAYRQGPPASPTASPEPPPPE
# Method in brief: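 Substrate SUVs of EPC or POPC with 14C-cholesterol (20:1 molar ratio), in 10 mM Tris, 0.14 M NaCl, 1 mM EDTA, pH 7.4, were preincubated with peptide or equal mass of plasma ApoA-I. Reaction started with human plasma LCAT; activation was measured as cholesterol-to-ester conversion relative to ApoA-I (100%).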
# [2] = Circular dichroism helicity determination; assay type: physicochemical; conditions: percent helicity; for He (%) TFE: 5 μM peptide, 90% vol TFE; for He (%) TFE / He (%) SUVs: 37° C.; for He (%) free: unbound peptide 5 μM in 5 mM phosphate buffer, pH 7.4, 37° C.; for He (%) SUVs: peptide-SUV complexes (20:1 EPC:Chol., Ri=30 and Ri=50); for He (%) mics: peptide-micelle complexes, Ri=100, 37° C.
# Method in brief: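 Far-UV CD (190–260 nm) at 37° C on 5 μM peptide in 5 mM phosphate pH 7.4, free, with EPC:Chol 20:1 SUVs (Ri 30 or 50), lysophosphatidylcholine micelles (Ri 100) or 90% TFE. Spectra converted to molar ellipticity per residue; helicity from 222 nm ellipticity or CONTIN fitting to reference spectra, ±5%.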
Molecule,ACTIVITY (%) LCAT [1],He (%) TFE [2],He (%) free [2],He (%) SUVs [2],He (%) mics [2]
"CC(C)C[C@H](NC(=O)[C@H](C)NC(=O)[C@H](CCC(=O)O)NC(=O)[C@H](CC(C)C)NC(=O)C(C)(C)NC(=O)[C@H](CCC(=O)O)NC(=O)[C@H](CC(N)=O)NC(=O)[C@H](CC(C)C)NC(=O)[C@H](CC(C)C)NC(=O)[C@H](CCC(=O)O)NC(=O)[C@H](CCCNC(=N)N)NC(=O)[C@H](Cc1c[nH]c2ccccc12)NC(=O)[C@H](CC(C)C)NC(=O)[C@H](CC(=O)O)NC(=O)[C@H](CC(C)C)NC(=O)[C@@H](NC(=O)[C@@H]1CCCN1)C(C)C)C(=O)N[C@@H](CCCCN)C(=O)N[C@@H](CCC(N)=O)C(=O)N[C@@H](CCCCN)C(=O)N[C@@H](CC(C)C)C(=O)N[C@@H](CCCCN)C(=O)O [compound 41, PVLDLWRELLNEXLEALKQKLK] (H-PVLDLWRELLNE[Aib]LEALKQKLK-OH)",25%,69%,53%,85%,73%
PVLDLFRELLELLKQKLK [compound 217],30%,70%,52%,76%,78%
PLFRELLNELLEALKQKLK [compound 55],19%,75%,38%,78%,72%
PVLDLFRELWNELLEALKQKLK [peptide 15],60%,68%,55%,64%,60%
"PVLDEFREKLNEALEALKQKLK [peptide 94, reference compound]",5%,63%,18%,27%,70%
"CC(C)C[C@@H](NC(=O)[C@H](N)CCCCN)C(=O)N[C@H](CCCCN)C(=O)N[C@H](CCC(N)=O)C(=O)N[C@H](CCCCN)C(=O)N[C@H](CC(C)C)C(=O)N[C@H](C)C(=O)N[C@H](CCC(=O)O)C(=O)N[C@H](CC(C)C)C(=O)N[C@H](CC(C)C)C(=O)N[C@H](CCC(=O)O)C(=O)N[C@H](CC(N)=O)C(=O)N[C@H](CC(C)C)C(=O)N[C@H](CC(C)C)C(=O)N[C@H](CCC(=O)O)C(=O)N[C@H](CCCNC(=N)N)C(=O)N[C@H](Cc1ccccc1)C(=O)N[C@H](CC(C)C)C(=O)N[C@H](CC(=O)O)C(=O)N[C@H](CC(C)C)C(=O)N[C@@H](C(=O)N1CCC[C@@H]1C(=O)O)C(C)C [compound 107, klkqklaellenllerfldlvp]",0%,77%,,,
"DWFKAFYDKVAEKFKEAF [peptide 243, reference compound]",5%,,10%,50%,64%
PVLDLFNELLRELLEALQKKLK [compound 40],25%,77%,66%,79%,84%
PVLDEFREKLNEPLEALKQKLK [compound 113],0%,,6%,,22%
"CC(C)C[C@H](NC(=O)[C@H](C)NC(=O)[C@H](CCC(=O)O)NC(=O)[C@H](Cc1cccc2ccccc12)NC(=O)[C@H](CC(C)C)NC(=O)[C@H](CCC(=O)O)NC(=O)[C@H](CC(N)=O)NC(=O)[C@H](CC(C)C)NC(=O)[C@H](CC(C)C)NC(=O)[C@H](CCC(=O)O)NC(=O)[C@H](CCCNC(=N)N)NC(=O)[C@H](Cc1ccccc1)NC(=O)[C@H](CC(C)C)NC(=O)[C@H](CC(=O)O)NC(=O)[C@H](CC(C)C)NC(=O)[C@@H](NC(=O)[C@@H]1CCCN1)C(C)C)C(=O)N[C@@H](CCCCN)C(=O)N[C@@H](CCC(N)=O)C(=O)N[C@@H](CCCCN)C(=O)N[C@@H](CC(C)C)C(=O)N[C@@H](CCCCN)C(=O)O [compound 27, PVLDLFRELLNELZEALKQKLK] (H-PVLDLFRELLNEL[1Nal]EALKQKLK-OH)",44%,81%,72%,82%,92%
